Measurements published in patent US20220119354A1, “DIAMINO-SUBSTITUTED PYRIDINES AND PYRIMIDINES AS HERBICIDES” (FMC Corporation, priority 2019, published 2022).

How the values were obtained:
Assay type in all cases: in vivo
[1] = test system: sedge, umbrella (small-flower umbrella sedge, Cyperus difformis); test: Test B flooded paddy test, umbrella sedge; conditions: Cyperus difformis, 360 h; Flood, 250 g ai/ha, applied to paddy water, 2-leaf stage, visual evaluation after 13 to 15 d; read-out: Plant response rating, Sedge, Umbrella (0 to 100 scale, 0 is no effect, 100 is complete control)
In short: (§1)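 Rating: 0 = no effect, 100 = complete control, visual, relative to untreated plants. Conditions: 2-leaf stage, 3 cm flood kept constant, compound put directly into water, 13–15 d greenhouse.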

kochia (Kochia scoparia) [2] = test: Test A preemergence, kochia; conditions: 0 to 100 scale, 0 is no effect, 100 is complete control
In short: (§2)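 Compound, in a non-phytotoxic solvent blend containing surfactant, is sprayed onto soil immediately after sowing or onto young plants (one- to two-leaf, 2–10 cm). After roughly 10 d under greenhouse conditions, injury is judged by eye relative to untreated plants on a 0–100 control scale.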

[3] = test system: ryegrass, Italian (Lolium multiflorum); test: Test A postemergence, Italian ryegrass; conditions: Lolium multiflorum, post-emergence, 240 h, 0 to 100 scale, 0 no effect, 100 complete control, read-out: Plant response rating, Ryegrass, Italian
In short: as §2

[4] = test system: ducksalad (Heteranthera limosa); test: Test B flooded paddy test, ducksalad; conditions: Heteranthera limosa, 360 h; Flood, 250 g ai/ha, applied to paddy water, 2-leaf stage, visual evaluation after 13 to 15 d; read-out: Plant response rating, Ducksalad (0 to 100 scale, 0 is no effect, 100 is complete control)
In short: as §1

[5] = test system: barnyardgrass (Echinochloa crus-galli); test: Test A postemergence, barnyardgrass; conditions: Echinochloa crus-galli, post-emergence, 240 h, 0 to 100 scale, 0 no effect, 100 complete control, read-out: Plant response rating, Barnyardgrass
In short: as §2

[6] = test system: ryegrass, Italian (Lolium multiflorum); test: Test A preemergence, Italian ryegrass; conditions: 0 to 100 scale, 0 is no effect, 100 is complete control
In short: as §2

[7] = test system: pigweed (Amaranthus retroflexus); test: Test A preemergence, pigweed; conditions: 0 to 100 scale, 0 is no effect, 100 is complete control
In short: as §2

corn (Zea mays) = test: Test A postemergence, corn; conditions: Zea mays, post-emergence, 240 h, 0 to 100 scale, 0 no effect, 100 complete control
In short: as §2

[8] = test system: foxtail, giant (Setaria faberii); test: Test A preemergence, giant foxtail; conditions: 0 to 100 scale, 0 is no effect, 100 is complete control
In short: as §2

rice (Oryza sativa) = test: Test B flooded paddy test, rice; conditions: Oryza sativa, 360 h; Flood, 250 g ai/ha, applied to paddy water, 2-leaf stage, visual evaluation after 13 to 15 d; read-out: Plant response rating, Rice (0 to 100 scale, 0 is no effect, 100 is complete control)
In short: as §1

[9] = test system: barnyardgrass (Echinochloa crus-galli); test: Test B flooded paddy test, barnyardgrass; conditions: Echinochloa crus-galli, 360 h; Flood, 250 g ai/ha, applied to paddy water, 2-leaf stage, visual evaluation after 13 to 15 d; read-out: Plant response rating, Barnyardgrass (0 to 100 scale, 0 is no effect, 100 is complete control)
In short: as §1

kochia (Kochia scoparia) [10] = test: Test A postemergence, kochia; conditions: Bassia scoparia, post-emergence, 240 h, 0 to 100 scale, 0 no effect, 100 complete control, read-out: Plant response rating, Kochia
In short: as §2

[11] = test system: foxtail, giant (Setaria faberii); test: Test A postemergence, giant foxtail; conditions: Setaria faberi, post-emergence, 240 h, 0 to 100 scale, 0 no effect, 100 complete control, read-out: Plant response rating, Foxtail, Giant
In short: as §2

[12] = test system: barnyardgrass (Echinochloa crus-galli); test: Test A preemergence, barnyardgrass; conditions: 0 to 100 scale, 0 is no effect, 100 is complete control
In short: as §2

[13] = test system: ragweed (common ragweed, Ambrosia elatior); test: Test A postemergence, ragweed; conditions: Ambrosia artemisiifolia, post-emergence, 240 h, 0 to 100 scale, 0 no effect, 100 complete control, read-out: Plant response rating, Ragweed
In short: as §2

[14] = test system: ragweed (common ragweed, Ambrosia elatior); test: Test A preemergence, ragweed; conditions: 0 to 100 scale, 0 is no effect, 100 is complete control
In short: as §2

[15] = test system: wheat (Triticum aestivum); test: Test A postemergence, wheat; conditions: Triticum aestivum, post-emergence, 240 h, 0 to 100 scale, 0 no effect, 100 complete control, read-out: Plant response rating, Wheat
In short: as §2

In the case of `C[C@@H](Nc1ncc(C(F)(F)F)c(N)n1)c1cc2c(F)cccc2s1` [Compound 61, N2-[(1R)-1-(4-fluorobenzo[b]thien-2-yl)ethyl]-5-(trifluoromethyl)-2,4-pyrimidinediamine], the pest or weed control at 250 g/ha [1] is reported as 90%, the “Kochia plant response rating” value (kochia (Kochia scoparia) [2]; 125 g ai/ha) is reported as 90 and the “Kochia plant response rating” value (kochia (Kochia scoparia) [2]; 500 g ai/ha) is reported as 90. It also gave a pest or weed control at 125 g/ha ([3]; 125 g ai/ha) of 50%, a pest or weed control at 500 g/ha ([3]; 500 g ai/ha) of 90% and a pest or weed control at 250 g/ha [4] of 50%. For the same molecule, the pest or weed control at 125 g/ha ([5]; 125 g ai/ha) was 80%, the pest or weed control at 500 g/ha ([5]; 500 g ai/ha) was 100% and the “Ryegrass, Italian plant response rating” value ([6]; 125 g ai/ha) was 40. The “Ryegrass, Italian plant response rating” value ([6]; 500 g ai/ha) was 100, the “Pigweed plant response rating” value ([7]; 125 g ai/ha) was 100 and the “Pigweed plant response rating” value ([7]; 500 g ai/ha) was 100. The Corn plant response rating (crop injury, 0 = no effect, 100 = complete kill) at 125 g/ha (corn (Zea mays); 125 g ai/ha) was 10%, the Corn plant response rating (crop injury, 0 = no effect, 100 = complete kill) at 500 g/ha (corn (Zea mays); 500 g ai/ha) was 60% and the “Foxtail, Giant plant response rating” value ([8]; 125 g ai/ha) was 100. For the same molecule, the “Foxtail, Giant plant response rating” value ([8]; 500 g ai/ha) was 100, the plant injury at 250 g/ha (rice (Oryza sativa)) was 0% and the pest or weed control at 250 g/ha [9] was 40%. It also gave a pest or weed control at 125 g/ha (kochia (Kochia scoparia) [10]; 125 g ai/ha) of 80%, a pest or weed control at 500 g/ha (kochia (Kochia scoparia) [10]; 500 g ai/ha) of 90% and a pest or weed control at 125 g/ha ([11]; 125 g ai/ha) of 90%. The pest or weed control at 500 g/ha ([11]; 500 g ai/ha) was 90%, the “Barnyardgrass plant response rating” value ([12]; 125 g ai/ha) was 80 and the “Barnyardgrass plant response rating” value ([12]; 500 g ai/ha) was 90. For the same molecule, the pest or weed control at 125 g/ha ([13]; 125 g ai/ha) was 60%, the pest or weed control at 500 g/ha ([13]; 500 g ai/ha) was 100% and the “Ragweed plant response rating” value ([14]; 125 g ai/ha) was 90. For the same molecule, the “Ragweed plant response rating” value ([14]; 500 g ai/ha) was 100, the plant injury at 125 g/ha ([15]; 125 g ai/ha) was 20% and the plant injury at 500 g/ha ([15]; 500 g ai/ha) was 30%.
